Legend:
TET2 = TET2 expression in the ARC of mice; format: in vivo, mouse; conditions: 2.5 mg/kg i.p., two days
Protocol: To test whether Bobcat339 affects TET3 protein expression in AgRP neurons, Agrp-IRES-Cre::LSL-Cas9-GFP mice with GFP expression specifically in AgRP neurons were intraperitoneally injected with vehicle or Bobcat339 at 2.5 mg/kg, followed by isolation of ARCs under fed conditions (9:00-11:00) two days later. This dose was chosen based on the dose response studies. TET2 expression was widespread but was negligible in AgRP neurons.
Bobcat339 powder (Sigma-Aldrich, SML2611) was freshly dissolved in DMSO (vehicle) at a concentration of 50 mg/mL and filtered through a 0.22 micron. It was further diluted with 1×PBS to a final concentration of 0.5 mg/mL before injections. Mice were injected intraperitoneally with Bobcat339 at 1 mg/kg, 2.5 mg/kg, or 4 mg/kg.
The immunofluorescence for brain slices was conducted using previous methods (18). In brief, postfixed sections were cut into 40-μm-thick sections, followed by 5 times washing. […] The sections were coverslipped and scoped using a Keyence BZ-X700 fluorescence microscope. The fluorescence signals from GFP in AgRP neurons were detected without immunostaining.

THP-1 cells = experiment: TUNEL assay in THP-1 cells; format: cell-based, human; conditions: THP-1, 10 μM, 48 h
Protocol: For TET3 expression restoration experiments, cells seeded in 24-well plates were infected with Ad-GFP or Ad-TET3 at 4000 gc/cell. Following 16 h of infection, vehicle or Bobcat339 were added at a final concentration of 10 μM. Protein and RNA were isolated 48 hours later and analyzed.
These were performed using the In Situ Cell Death Detection Kit (Sigma Aldrich, 12156792910). Briefly, cells were fixed with 4% paraformaldehyde in PBS for 1 h at RT and rinsed with PBS, followed by permeabilization with 0.1% Triton X-100 in 0.1% sodium citrate for 2 min on ice. TUNEL reaction mixture was added and incubation was carried out at 37 °C for 60 min. DAPI was added to counter-stain the cells for 1 min. The slides were coverslipped and scoped using a Keyence BZ-X700 fluorescence microscope.

NPY and VGAT = NPY and VGAT expression in leptin-treated GT1-7 cells; format: cell-based, mouse; conditions: TET3-dependent manner
Protocol: Mouse GT1-7 hypothalamic neuronal cell line (Sigma-Aldrich, SCC116), human SH-SY5Y neuronal blastoma cell line (ATCC, CRL-2266), and embryonic mouse hypothalamus cell line N11 (mHypoE-N11) (Cedarlane, CLU107) were purchased and cultured according to the manufacturers' instructions. For siRNA transfection in a 24-well plate scale, cells were seeded at a density of 2×10^5 cells/well the day before transfection. To prepare siRNA transfection solution for each well of cells, 5 pmol of NT siRNA (non-targeting control siRNA, AM4636, Ambion), Tet3 siRNA (siRNA specifically targeting mouse Tet3, 4390815/s101483, Ambion), or TET3 siRNA (siRNA specifically targeting human TET3, 4392420/s47238, Ambion) (Cao et al., 2019, Oncogene, 38:5356-5366; Xu et al., 2020, Cell Rep., 30:1310-1318) were mixed with 25 μl of OPTI-MEM (Gibco, 31985-070) by gentle pipetting (Cao, T. et al., 2019, Oncogene, 38:5356-5366; Xu, Y. et al., 2020, Cell Reports, 30:1310-1318 e5). In parallel, 1.5 μl of Lipofectamine RNAiMAX (Invitrogen, 13778-150) was mixed with 25 μl of OPTI-MEM by gentle pipetting. Following 5 min of incubation at room temperature, the resulting 50 μl of transfection solution was added to one well of cells containing 1 ml culture media. […]

Row | Compound | TET2 expression (TET2) | apoptosis (TUNEL) (THP-1 cells) | NPY and VGAT expression (NPY and VGAT)
1 | Nc1nc(=O)n(-c2cccc(-c3ccccc3)c2)cc1Cl [Bobcat339, 4-Amino-1-[1,1′-biphenyl]-3-yl-5-chloro-2(1H)-pyrimidinone] | did not significantly affect TET2 expression | a significant increase in apoptotic cell death | –
2 | leptin: adipose hormone; mouse leptin L3772-1MG or human leptin L4146-1MG, Sigma Aldrich | – | – | negatively affected the expression of NPY and VGAT
